Reference: a compilation of properties of binary mixtures (doi:10.1016/j.molliq.2016.11.066)

Assay: xn = mol fraction of the nth substance listed
Conditions: 101 kPa

CCCC[n+]1ccn(C)c1.F[P-](F)(F)(F)(F)F + COCCO
speed of sound [m/s]
Conditions | x1 = 0.0966 | x1 = 0.1943 | x1 = 0.2887 | x1 = 0.3979 | x1 = 0.4792 | x1 = 0.5943 | x1 = 0.6753 | x1 = 0.8101 | x1 = 0.8849 | x1 = 1
298.15 K | 1365.5 | 1384.8 | – | 1407.6 | 1414.1 | – | 1427.3 | 1435.2 | – | 1443.8
303.15 K | 1349.4 | 1369.8 | 1383.3 | – | 1401.4 | 1409.8 | 1414.9 | 1422.8 | – | 1431.7
308.15 K | 1333.3 | 1354.5 | 1369 | – | 1388.8 | 1397.5 | – | 1411 | 1414.9 | 1419.8
313.15 K | 1317.6 | 1339.6 | 1355.1 | 1368.2 | 1376 | 1385.6 | – | 1399.3 | 1403.1 | 1408.2
318.15 K | 1301.5 | 1324.7 | 1341.4 | – | 1363.7 | 1373.6 | – | 1388 | 1391.8 | –
323.15 K | 1285.5 | 1310.1 | 1327.8 | 1343 | 1352.2 | 1362.1 | 1368.3 | 1377.2 | – | 1385.6

COCCO + CCCC[n+]1ccn(C)c1.F[P-](F)(F)(F)(F)F
x2 = 0
Conditions | speed of sound [m/s]
298.15 K | 1342.1
303.15 K | 1324.7
308.15 K | 1307.4
313.15 K | 1290.1
318.15 K | 1272.7
323.15 K | 1255.4
